Test [1] deals with Staphylococcus aureus (ATCC 43300). The test is described as follows: Antibacterial MIC, broth microdilution (CLSI). Type of test: cell-based. The note with it: for MIC80: Staphylococcus aureus, ATCC43300, read-out: MIC80 S. aureus; for S. aureus Selectivity Indices, Group / S. aureus Selectivity Index (SI): SI, IC50 (μM)/MIC80 (μM), HEK293 cytotoxicity; for S. aureus Selectivity Index (SI): numeric value.

The subject of test [2] is Enterococcus faecalis (ATCC 51299). In words: Antibacterial MIC, broth microdilution (CLSI). The following applies: for MIC80: Enterococcus faecalis, ATCC51299, read-out: MIC80 E. faecalis. The format is cell-based.
Test [3] concerns Escherichia coli (ATCC 25922). In words: Antibacterial MIC, broth microdilution (CLSI). The note with it: Escherichia coli, ATCC25922; read-out: MIC80 E. coli. Type of test: cell-based.
Test [4] deals with T. vaginalis. In words: Trichomonas resorufin assay. The format is cell-based. The note with it: for IC50: Trichomonas vaginalis, read-out: IC50 T. vaginalis; for T. vaginalis Selectivity Indices, Group / T. vaginalis Selectivity Index (SI): SI, IC50 (μM)/IC50 (μM), HEK293 cytotoxicity; for T. vaginalis Selectivity Index (SI): numeric value.
For test [5], the system named is C. neoformans (F10025). The note with it: Cryptococcus neoformans, read-out: MIC99 C. neoformans.
The subject of test [6] is A. fumigatus A1160 (MFIG001). The note with it: Aspergillus fumigatus, read-out: MIC99 A. fumigatus A1160.
The subject of test [7] is Candida glabrata (ACPF3309). The note with it: Nakaseomyces glabratus, read-out: MIC99 Candida glabrata.
Experimental: The Minimum Inhibitory Concentration (MIC, at 99% inhibition) of the compounds was determined using the broth microdilution method as recommended by EUCAST (EUCAST Definitive Document E.DEF 9.3.2, Method for the determination of broth dilution minimum inhibitory concentrations of antifungal agents for conidia forming moulds and EUCAST Definitive Document E.DEF 7.3.2 Method for the determination of broth dilution minimum inhibitory concentrations of antifungal agents for yeasts).
In test [8] the test system is Genomic double stranded DNA (salmon). In words: Fluorescence intercalator displacement (FID) assay, SYBR-safe probe. The note with it: 20 μM compound, 30° C., lower % = stronger binding. Summed up: (§1)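 Probe displacement was measured at 30 °C in 1 mM phosphate pH 7.4 containing SybrSafe (12500-fold dilution), 3.76 ng/mL nucleic acid (salmon dsDNA or polyAU dsRNA) and 20 μM compound. Fluorescence loss is normalised between probe-only and probe-plus-nucleic-acid controls.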

In test [9] the test system is PolyAU double stranded RNA. Described as above. The note with it: 20 μM compound, 30° C., lower % = stronger binding. The method in brief:
as §1

Setting [10] is: SI, IC50 (μM)/MIC80 (μM), HEK293 cytotoxicity, Quaternary ammoniums.

SMILES strings stand for the structures. Values after ≈ are worked out from the molar mass of the structure shown.

A word on the MIC80: it is the lowest concentration that inhibits either 80% of growth or 80% of the strains tested, depending on the study. A word on the IC50: it is the midpoint of a concentration-inhibition curve. In general, MIC99 refers to the lowest concentration that inhibits either 99% of growth or 99% of the strains tested, depending on the study. As to `CCCCCCCCCCCC[N+](C)(C)CCNC(=O)c1cc(NC(=O)c2cc(NC(=O)c3ccc(/C=C/c4cnc5ccccc5c4)cc3)cn2C)cn1C` [Ic11, (E)-N,N-dimethyl-N-(2-(1-methyl-4-(1-methyl-4-(4-(2-(quinolin-3-yl)vinyl)benzamido)-1H-pyrrole-2-carboxamido)-1H-pyrrole-2-carboxamido)ethyl)dodecan-1-aminium], the values for the MIC80 in test [1], in test [2] and in test [3] were 5 to 25 µM, 25 to 100 µM and above 100 µM, respectively. For the same compound, the half-maximal inhibitory concentration (IC50) in [4] lay in the range of 5 to 50 µM. In addition, the MIC99 is above 50 µg/mL in test [5], above 50 µg/mL in test [6] and 5 to 25 µg/mL in test [7].

Take `Cn1cc(NC(=O)c2cc(NC(=O)c3ccc(/C=C/c4cnc5ccccc5c4)cc3)cn2C)cc1C(=O)NCCC(=N)N1CCSCC1` [Ib7, (E)-N-(3-imino-3-thiomorpholinopropyl)-1-methyl-4-(1-methyl-4-(4-(2-(quinolin-3-yl)vinyl)benzamido)-1H-pyrrole-2-carboxamido)-1H-pyrrole-2-carboxamide]: in test [1] (Alkyl Amidines and NH Pyrroles), the “S. aureus Selectivity Indices, Group” value was “D (D: SI > 10)”. In addition, the “S. aureus Selectivity Index (SI)” value in test [1] amounted to 26. In addition, the results for the MIC80 in test [1], in test [2] and in test [3] were below 5 µM, below 5 µM and above 100 µM, respectively. Besides, the “E. faecalis Selectivity Indices, Group” value in [2] (SI, IC50 (μM)/MIC80 (μM), HEK293 cytotoxicity, Alkyl Amidines and NH Pyrroles) was “C (Group C: 5 < SI <= 10)”. Further, the “T. vaginalis Selectivity Indices, Group” value in test [4] (Alkyl Amidines and NH Pyrroles) is “B (Group B: 8 < SI <= 16)”. For the same compound, the IC50 in test [4] was 1 to 5 µM. Moreover, in test [8], the “% Normalised Fluorescence with gDNA” value was 22%. For the same compound, the “% Normalised Fluorescence with polyAU RNA” value in test [9] was 7%. The MIC99 in test [5] and in [7] was 5 to 25 µg/mL (≈ 7.41 to 37 µM) throughout.

As for `CCC[N+](C)(C)CCNC(=O)c1cc(NC(=O)c2cc(NC(=O)c3ccc(/C=C/c4cnc5ccccc5c4)cc3)cn2C)cn1C` [Ic2, (E)-N,N-dimethyl-N-(2-(1-methyl-4-(1-methyl-4-(4-(2-(quinolin-3-yl)vinyl)benzamido)-1H-pyrrole-2-carboxamido)-1H-pyrrole-2-carboxamido)ethyl)propan-1-aminium], the MIC80 in test [1] is below 5 µM; in test [2], below 5 µM; in test [3], above 100 µM. The IC50 in test [4] is below 1 µM. Further, the MIC99 is 5 to 25 µg/mL in [5], above 50 µg/mL in test [6] and below 5 µg/mL in test [7].

For `CCCCC[N+](C)(C)CCNC(=O)c1cc(NC(=O)c2cc(NC(=O)c3ccc(/C=C/c4cnc5ccccc5c4)cc3)cn2C)cn1C` [Ic4, (E)-N,N-dimethyl-N-(2-(1-methyl-4-(1-methyl-4-(4-(2-(quinolin-3-yl)vinyl)benzamido)-1H-pyrrole-2-carboxamido)-1H-pyrrole-2-carboxamido)ethyl)pentan-1-aminium], the “S. aureus Selectivity Indices, Group” value in [1] (Quaternary ammoniums) is on record as “D (Group D: SI > 10)”. In addition, the “S. aureus Selectivity Index (SI)” value in [1] was found to be 11. Further, the MIC80 in test [1] was below 5 µM; in test [2], below 5 µM; in test [3], above 100 µM. For the same compound, the “E. faecalis Selectivity Indices, Group” value in [2] (setting [10]) was “C (Group C: 2 < SI <= 5)”. In test [4] (Quaternary ammoniums), the “T. vaginalis Selectivity Indices, Group” value is given as “D (Group D: SI > 3)”. In addition, the “T. vaginalis Selectivity Index (SI)” value in [4] is given as 4. Also, in test [4], the concentration for half-maximal inhibition (IC50) is 1 to 5 µM. Also, the MIC99 was 5 to 25 µg/mL in test [5], above 50 µg/mL in [6] and 5 to 25 µg/mL in test [7].

Consider `CCCCCCCC[N+](C)(C)CCNC(=O)c1cc(NC(=O)c2cc(NC(=O)c3ccc(/C=C/c4cnc5ccccc5c4)cc3)cn2C)cn1C` [Ic7, (E)-N,N-dimethyl-N-(2-(1-methyl-4-(1-methyl-4-(4-(2-(quinolin-3-yl)vinyl)benzamido)-1H-pyrrole-2-carboxamido)-1H-pyrrole-2-carboxamido)ethyl)octan-1-aminium], for which the “S. aureus Selectivity Indices, Group” value in test [1] (Quaternary ammoniums) was “D (Group D: SI > 10)”. For the same compound, in test [1], the “S. aureus Selectivity Index (SI)” value amounted to 13. The MIC80 is below 5 µM in test [1], above 100 µM in [2] and above 100 µM in test [3]. For the same compound, in test [4], the half-maximal inhibitory concentration (IC50) was in the range of 5 to 50 µM. Also, the MIC99 was 5 to 25 µg/mL in [5], above 50 µg/mL in [6] and 5 to 25 µg/mL in test [7].

Turning to `[H]/N=C(\CCNC(=O)c1cc(NC(=O)c2cc(NC(=O)c3ccc(C=Cc4ccc5nonc5c4)cc3)cn2C)cn1C)N1CCN(C)CC1` [Ib4, (E)-4-(4-(2-(benzo[c][1,2,5]oxadiazol-5-yl)vinyl)benzamido)-N-(5-((3-imino-3-(4-methylpiperazin-1-yl)propyl)carbamoyl)-1-methyl-1H-pyrrol-3-yl)-1-methyl-1H-pyrrole-2-carboxamide], the MIC80 was below 5 µM in test [1], below 5 µM in [2] and above 100 µM in test [3]. The “% Normalised Fluorescence with gDNA” value in test [8] was 20%. Also, the “% Normalised Fluorescence with polyAU RNA” value in test [9] was 5%. In addition, the figures for the MIC99 in [5] and in test [7] were 5 to 25 µg/mL (≈ 7.54 to 37.7 µM) and 25 to 50 µg/mL (≈ 37.7 to 75.4 µM), respectively.

For the compound `CCCC[N+](C)(C)CCNC(=O)c1cc(NC(=O)c2cc(NC(=O)c3ccc(/C=C/c4cnc5ccccc5c4)cc3)cn2C)cn1C` [Ic3, (E)-N,N-dimethyl-N-(2-(1-methyl-4-(1-methyl-4-(4-(2-(quinolin-3-yl)vinyl)benzamido)-1H-pyrrole-2-carboxamido)-1H-pyrrole-2-carboxamido)ethyl)butan-1-aminium], the MIC80 was below 5 µM in [1], below 5 µM in [2] and above 100 µM in [3]. The “E. faecalis Selectivity Indices, Group” value in test [2] (setting [10]) was “D (Group D: SI > 5)”. Also, in test [2] (SI, IC50 (μM)/MIC80 (μM), HEK293 cytotoxicity, numeric value), the “E. faecalis Selectivity Index (SI)” value was determined as 11. Further, the “T. vaginalis Selectivity Indices, Group” value in test [4] (Quaternary ammoniums) was “D (Group D: SI > 3)”. In addition, the “T. vaginalis Selectivity Index (SI)” value in [4] is 6. The IC50 in test [4] was in the range of 1 to 5 µM. Further, the MIC99 was 5 to 25 µg/mL in test [5], above 50 µg/mL in test [6] and 5 to 25 µg/mL in test [7].

For `CCCCCCCCCCCCCCCC[N+](C)(C)CCNC(=O)c1cc(NC(=O)c2cc(NC(=O)c3ccc(/C=C/c4cnc5ccccc5c4)cc3)cn2C)cn1C` [Ic15, (E)-N,N-dimethyl-N-(2-(1-methyl-4-(1-methyl-4-(4-(2-(quinolin-3-yl)vinyl)benzamido)-1H-pyrrole-2-carboxamido)-1H-pyrrole-2-carboxamido)ethyl)hexadecan-1-aminium], the IC50 in test [4] lay in the range of 5 to 50 µM. Moreover, the MIC99 in test [5] is 25 to 50 µg/mL; in test [6] it was above 50 µg/mL; in test [7] it was above 50 µg/mL.

In the case of `COc1ccc(/C=C/c2ccc(C(=O)Nc3cc(C(=O)Nc4cc(C(=O)NCCC(=N)NC(C)C)n(C)c4)n(C)c3)cc2)cc1` [Ia18, (E)-N-(3-imino-3-(isopropylamino)propyl)-4-(4-(4-(4-methoxystyryl)benzamido)-1-methyl-1H-pyrrole-2-carboxamido)-1-methyl-1H-pyrrole-2-carboxamide], the “S. aureus Selectivity Indices, Group” value in test [1] (Alkyl Amidines and NH Pyrroles) was “B (Group B: 3 < SI <= 5)”. The MIC80 in test [1] fell in the range of 5 to 25 µM (≈ 3.05 to 15.2 µg/mL); in test [2] it was 5 to 25 µM (≈ 3.05 to 15.2 µg/mL); in test [3], 25 to 100 µM (≈ 15.2 to 61 µg/mL). Moreover, the IC50 in test [4] was 5 to 50 µM. Moreover, the “% Normalised Fluorescence with gDNA” value in test [8] stood at 6%. Moreover, the “% Normalised Fluorescence with polyAU RNA” value in [9] was determined as 9%. Moreover, the MIC99 was 5 to 25 µg/mL (≈ 8.2 to 41 µM) in test [5] and above 50 µg/mL in test [6].

Take `CCCCCCCCCCCCCCC[N+](C)(C)CCNC(=O)c1cc(NC(=O)c2cc(NC(=O)c3ccc(/C=C/c4cnc5ccccc5c4)cc3)cn2C)cn1C` [Ic14, (E)-N,N-dimethyl-N-(2-(1-methyl-4-(1-methyl-4-(4-(2-(quinolin-3-yl)vinyl)benzamido)-1H-pyrrole-2-carboxamido)-1H-pyrrole-2-carboxamido)ethyl)pentadecan-1-aminium]: the IC50 in [4] was 5 to 50 µM. Moreover, the MIC99 in test [5] is above 50 µg/mL; in test [6] it was above 50 µg/mL; in test [7], 25 to 50 µg/mL.
